Earlier results, collected in US20200129637A1, “COMBINATION THERAPY WITH AN ANTI-AXL ANTIBODY-DRUG CONJUGATE” (ADC Therapeutics SA, priority 2017, published 2020).

What was measured:
[1] = test system: AXL
[2] = test system: AXL; conditions: incubation of tumor cells with MEKi
[3] = test system: chronic lymphocytic leukaemia cells

Compound	Efficiency of the homologous recombination repair machinery [1]	Expression of DNA repair genes [1]	AXL on the membrane of tumor cells [2]	ERCC1 transcription [3]
Nc1nc(Nc2ccc3c(c2)CC[C@@H](N2CCCC2)CC3)nn1-c1cc2c(nn1)-c1ccccc1CCC2 [BGB324]	diminish the efficiency	decrease expression of DNA repair genes	–	–
O=C(NOC[C@H](O)CO)c1ccc(F)c(F)c1Nc1ccc(I)cc1F [PD325901]	–	–	strong accumulation of AXL	–
CN1CCN(Cc2ccc(Nc3ncc(Cl)c(Nc4ccccc4S(=O)(=O)N(C)C)n3)cc2)CC1 [TP0903]	diminish the efficiency	decrease expression of DNA repair genes	–	–
N#CC(=C(/N)Sc1ccccc1N)/C(C#N)=C(\N)Sc1ccccc1N [U0126]	–	–	strong accumulation of AXL	–
Fludarabine	–	–	–	suppress ERCC1 transcription
